# Source: ChEMBL document CHEMBL2375358, “Substituted thieno[2,3-d]pyrimidines as adenosine A2A receptor antagonists” (Bioorg Med Chem Lett, 2013)
# Calls of active or inactive are those of the source. No cut-off for these calls is given here.
# Key:
# Adenosine receptor A1 = target: T1, Adenosine receptor A1 (Homo sapiens, UniProt P30542); assay: Antagonist activity at human adenosine A1 receptor expressed in CHOK1 cells assessed as inhibition of R-PIA/forskolin-induced cAMP accumulation incubated for 15 mins prior to R-PIA/forskolin challenge measured after 5.5 to 6 hrs by beta-galactosidase reporter gene assay; type: functional, cell-based, CHO-K1
# T1 sequence (P30542 whole entry): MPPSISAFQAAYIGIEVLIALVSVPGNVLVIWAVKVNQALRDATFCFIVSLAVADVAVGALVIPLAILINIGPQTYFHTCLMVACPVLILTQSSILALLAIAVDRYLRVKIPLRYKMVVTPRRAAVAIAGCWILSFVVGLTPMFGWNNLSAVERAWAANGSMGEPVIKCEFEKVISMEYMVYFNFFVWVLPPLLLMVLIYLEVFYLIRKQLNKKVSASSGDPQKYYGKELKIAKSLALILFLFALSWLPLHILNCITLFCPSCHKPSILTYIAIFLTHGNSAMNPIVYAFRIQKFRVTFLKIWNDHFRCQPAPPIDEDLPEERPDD
# Adenosine receptor A2a = Adenosine receptor A2a (Homo sapiens, UniProt P29274); assay: Antagonist activity at human adenosine A2a receptor expressed in CHOK1 cells assessed as inhibition of NECA/forskolin-induced cAMP accumulation incubated for 15 mins prior to NECA/forskolin challenge measured after 5.5 to 6 hrs by beta-galactosidase reporter gene assay; type: functional, cell-based, CHO-K1
# Chain of Adenosine receptor A2a (P29274 whole entry): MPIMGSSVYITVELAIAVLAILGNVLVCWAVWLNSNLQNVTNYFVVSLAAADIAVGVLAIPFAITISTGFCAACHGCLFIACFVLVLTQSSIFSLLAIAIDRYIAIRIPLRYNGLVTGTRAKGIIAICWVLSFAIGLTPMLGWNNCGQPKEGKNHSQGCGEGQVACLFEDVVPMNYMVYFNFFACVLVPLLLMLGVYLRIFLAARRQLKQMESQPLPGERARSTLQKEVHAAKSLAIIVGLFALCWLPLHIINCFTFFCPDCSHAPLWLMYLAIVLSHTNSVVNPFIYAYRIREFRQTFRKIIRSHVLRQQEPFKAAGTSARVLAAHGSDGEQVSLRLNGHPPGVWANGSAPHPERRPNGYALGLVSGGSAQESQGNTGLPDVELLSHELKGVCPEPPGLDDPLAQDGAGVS
# Mus musculus [1] = assay: Antiparkinsonian activity in po dosed mouse assessed as reversal of haloperidol-induced catalepsy after 1 hr; type: functional
# Mus musculus [2] = assay: Antiparkinsonian activity in mouse assessed as reversal of haloperidol-induced catalepsy at 3 mg/kg, po after 1 hr; type: functional, organism-based; set-up: dose 3 mg/kg
# Mus musculus [3] = assay: Antiparkinsonian activity in mouse assessed as reversal of haloperidol-induced catalepsy at 10 mg/kg, po after 1 hr; type: functional, organism-based; set-up: dose 10 mg/kg
# [4] = Cmax in mouse at 10 mg/kg, po; type: ADME, organism-based; set-up: dose 10 mg/kg, route oral; conditions: in vivo
# [5] = Half life in mouse at 10 mg/kg, po; type: ADME, organism-based; set-up: dose 10 mg/kg, route oral; conditions: in vivo
# [6] = Oral bioavailability in rat at 10 mg/kg; type: ADME, organism-based; conditions: in vivo
# [7] = Clearance in rat at 2 mg/kg, iv and 10 mg/kg, po; type: ADME, organism-based; conditions: in vivo
# [8] = Ratio of drug level in brain to plasma in rat at 2 mg/kg, iv and 10 mg/kg, po measured at 1 hr; type: ADME, organism-based; conditions: read-out: BPR
# [9] = Half life in rat at 10 mg/kg, po; type: ADME, organism-based; set-up: dose 10 mg/kg, route oral; conditions: in vivo
# [10] = Clearance in mouse at 5 mg/kg, iv and 10 mg/kg, po; type: ADME, organism-based; conditions: in vivo
# [11] = Oral bioavailability in mouse at 10 mg/kg; type: ADME, organism-based; conditions: in vivo
# Mus musculus [12] = assay: Antiparkinsonian activity in mouse assessed as reversal of haloperidol-induced catalepsy at 10 mg/kg, po after 2 to 4 hrs; type: functional, organism-based; set-up: dose 10 mg/kg
# [13] = Cmax in rat at 10 mg/kg, po; type: ADME, organism-based; set-up: dose 10 mg/kg, route oral; conditions: in vivo
SMILES,Ki (Adenosine receptor A1),Ki (Adenosine receptor A2a),further results
Cc1csc(-c2nc(N)c3cc(C4(c5ccccc5)CC4)sc3n2)n1,> 610 nM,,
Cc1ccc(-c2nc(N)c3cc(C(C)c4ccccc4)sc3n2)o1 (configuration not stated),439 nM,40.1 nM,
Nc1nc(-c2ccccc2)nc2sc(CCc3ccccc3)cc12,,> 1000 nM,
CC(c1ccccc1)c1cc2c(N)nc(-c3cccc(C#N)c3)nc2s1 (configuration not stated),1770 nM,340 nM,
Nc1nc(-c2cccc(C(F)(F)F)c2)nc2sc(Cc3ccccc3)cc12,> 1000 nM,,
Nc1nc(-c2ccncc2)nc2sc(Cc3ccccc3)cc12,812 nM,67.3 nM,
Cc1ccc(-c2nc(N)c3ccsc3n2)o1,493 nM,109 nM,
C=C(c1ccccc1)c1cc2c(N)nc(-c3nc(C)cs3)nc2s1,> 594 nM,,
Nc1nc(-c2cccc(Cl)n2)nc2sc(Cc3ccccc3)cc12,> 1000 nM,173 nM,
Cc1csc(-c2nc(N)c3cc(Cc4ccccc4)sc3n2)n1,,,Activity (Mus musculus [3]): inactive
Cc1ccc(-c2nc(N)c3cc(CCc4ccccc4)sc3n2)o1,,203 nM,
N#Cc1cncc(-c2nc(N)c3cc(Cc4ccccc4)sc3n2)c1,1160 nM,> 168 nM,
Nc1nc(-c2ccccc2)nc2sccc12,,500 nM,
C=C(c1ccccc1)c1cc2c(N)nc(-c3cccc(C#N)c3)nc2s1,> 1000 nM,,
Cc1csc(-c2nc(N)c3cc(C(C)c4ccccc4)sc3n2)n1 (configuration not stated),1420 nM,100 nM,
N#Cc1cccc(-c2nc(N)c3cc(Cc4ccccc4)sc3n2)n1,> 1000 nM,26 nM,
N#Cc1cccc(-c2nc(N)c3cc(C4(c5ccccc5)CC4)sc3n2)c1,> 610 nM,,
Nc1nc(-c2ncccn2)nc2sc(Cc3ccccc3)cc12,,17.1 nM,
Nc1nc(-c2ncco2)nc2sc(Cc3ccccc3)cc12,310 nM,4.7 nM,Activity (Mus musculus [2]): inactive
Nc1nc(C2CCCO2)nc2sc(Cc3ccccc3)cc12 (configuration not stated),2950 nM,683 nM,
Cc1ccc(-c2nc(N)c3cc(-c4ccccc4)sc3n2)o1,520 nM,67.3 nM,
Nc1nc(-c2ccccn2)nc2sc(Cc3ccccc3)cc12,3710 nM,594 nM,

# More lines, main results first:
Ki (Adenosine receptor A1),Ki (Adenosine receptor A2a),SMILES,further results
26.1 nM,2.9 nM,Cc1ccc(-c2nc(N)c3cc(Cc4ccccc4Cl)sc3n2)o1,
24.8 nM,1.4 nM,N#Cc1cccc(-c2nc(N)c3cc(Cc4ccccc4Cl)sc3n2)c1,
49.6 nM,6.9 nM,Cc1csc(-c2nc(N)c3cc(Cc4ccccc4Cl)sc3n2)n1,
237 nM,207 nM,Nc1nc(-c2ccccc2)nc2sc(-c3ccccc3)cc12,
28.6 nM,9.7 nM,Cc1csc(-c2nc(N)c3cc(Cc4ccccc4F)sc3n2)n1,
< 16 nM,7.3 nM,N#Cc1cccc(-c2nc(N)c3cc(Cc4ccccc4F)sc3n2)c1,
222 nM,11.4 nM,N#Cc1cccc(-c2nc(N)c3cc(Cc4ccccc4)sc3n2)c1,ED50 (Mus musculus [1]): < 1 mg/kg; Activity (Mus musculus [2]): Active
122 nM,11 nM,COc1ccccc1Cc1cc2c(N)nc(-c3ccc(C)o3)nc2s1,ED50 (Mus musculus [1]): 0.8 mg/kg; Activity (Mus musculus [3]): Active
151 nM,29.8 nM,Nc1nc(-c2ccccc2)nc2sc(Cc3ccccc3)cc12,
283 nM,168 nM,CC(C)c1ccc(-c2nc(N)c3cc(Cc4ccccc4)sc3n2)o1,
106 nM,9 nM,Nc1nc(-c2cnco2)nc2sc(Cc3ccccc3)cc12,Activity (Mus musculus [2]): inactive
< 16 nM,3.7 nM,Cc1ccc(-c2nc(N)c3cc(Cc4ccccc4F)sc3n2)o1,
298 nM,,Cc1ccc(-c2nc(N)c3cc(Cc4ccccc4)sc3n2)o1,ED50 (Mus musculus [1]): 2.2 mg/kg; Cmax [4]: 5.01 µM; half-life [5]: 18 min; bioavailability [6]: 83%; clearance [7]: 65 mL/min/kg; Kp at 1 h [8]: 1.2; half-life [9]: 42 min; clearance [10]: 69 mL/min/kg; Activity (Mus musculus [3]): Active; bioavailability [11]: 5%; Activity (Mus musculus [12]): inactive; Cmax [13]: 2.98 µM
